From US7045626B2, “Quinoline derivatives, process for preparing them and use for the treatment of diseases mediated by s-CD23” (SmithKline Beecham p.l.c., priority 2001, dated 2006) come the findings set out here.

Bounds are passed on as bounds.

One assay addresses T1, MMP-3 (Homo sapiens, UniProt P08254).
T1 construct: purchased Calbiochem
In words: General MMP inhibition assay (fluorescence quench). In kind it is biochemical. The conditions noted are these: inhibitor up to 100 uM. As to the method: (§1) General MMP Inhibition Assays:
(§2) Inhibition of matrix metalloprotease activity was determined using a fluorescence quench assay with appropriate substrate. For example, MMP activity was determined using MMP activated using trypsin, according to Lark et al, Connective Tissue Res. 25, 52 (1990). The MMP is incubated at room temperature in a microtitre plate in a total volume of 100 ul, containing 0.15 M Tris Cl, 15 mM CaCl2, 0.2 M NaCl, pH 7.6 (assay buffer); inhibitor at concentrations up to 100 uM, with no more than 2% DMSO final concentration, 10 uM substrate (such as SDP-3815-PI for MMP-1, Peptides International). The MMP concentration is <10 nM, and determined empirically with the appropriate substrate to give at least a 20-fold increase in fluorescence emission in 30 min. Fluorescent excitation wavelength was 355 nm, emission wavelength 400–460 nm, and data points are collected to generate slope (change in fluorescence with time). Percent inhibition for each concentration is calculated from the slope at time zero, and IC50 values from the concentration dependence. MMP-1, 2, 3, 7, 9, 13, 14 may all be assayed in the same manner, using commercially available substrates reported to be effective for each enzyme. Enzymes were obtained from Calbiochem and activated using the same trypsin method.

The next assay concerns the target T2, MMP-13 (Homo sapiens, UniProt P45452).
T2 construct: purchased Calbiochem
In words: General MMP inhibition assay (fluorescence quench). The assay is classed as biochemical. The conditions noted are these: inhibitor up to 100 uM. As to the method: as §1, §2

In assay [1] the target is T3, human recombinant collagenase (Homo sapiens, UniProt P03956).
T3 construct: made in house; host or cells: E. coli
T3 sequence (P03956 100-469): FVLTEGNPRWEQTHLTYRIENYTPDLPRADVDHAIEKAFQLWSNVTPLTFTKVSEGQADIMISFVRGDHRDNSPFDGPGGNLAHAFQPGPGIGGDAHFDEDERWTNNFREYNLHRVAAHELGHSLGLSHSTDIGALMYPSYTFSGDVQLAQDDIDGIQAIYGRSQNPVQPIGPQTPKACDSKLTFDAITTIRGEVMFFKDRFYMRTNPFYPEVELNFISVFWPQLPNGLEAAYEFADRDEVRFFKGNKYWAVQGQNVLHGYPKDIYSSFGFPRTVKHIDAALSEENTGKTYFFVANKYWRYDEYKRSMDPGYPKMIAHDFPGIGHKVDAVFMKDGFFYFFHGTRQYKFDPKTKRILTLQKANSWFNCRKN
In words: Collagenase inhibition assay. The assay is classed as biochemical. Particulars: 37° C., 18 h, 3H type 1 bovine collagen; read-out: IC50, collagenase inhibition (procedure 2). How it is done:
Procedure 2: The ability of test compounds to inhibit matrix metalloproteases was investigated using the following procedures.
Collagenase Inhibition Assay:
The potency of compounds to act as inhibitors of collagenase was determined by the method of Cawston and Barrett (Anal. Biochem. 99, 340–345, 1979), hereby incorporated by reference, whereby a 1 mM solution of the inhibitor being tested or dilutions thereof, was incubated at 37° C. for 18 h with collagen and human recombinant collagenase, from synovial fibroblasts cloned, expressed and purified from E. Coli, (buffered with 150 mM Tris, pH 7.6, containing 15 mM calcium chloride, 0.05% Brij 35, 200 mM sodium chloride and 0.02% sodium azide). The collagen was acetylated ^3H type 1 bovine collagen prepared by the method of Cawston and Murphy (methods in Enzymology 80, 711,1981) The samples were centrifuged to sediment undigested collagen and an aliquot of the radioactive supernatant removed for assay on a scintillation counter as a measure of hydrolysis. The collagenase activity in the presence of 1 mM inhibitor, or dilution thereof, was compared to activity in a control devoid of inhibitor and the results reported as that concentration effecting 50% of the collagenase (IC50).

The subject of assay [2] is release of soluble CD23 from RPMI 8866 cell plasma membranes. In words: RPMI 8866 cell membrane CD23 cleavage activity assay. The assay is classed as biochemical, human. The conditions noted are these: RPMI 8866 plasma membranes, 37° C., sCD23 by EIA; read-out: IC50, inhibition of production of sCD23. As to the method:
Procedure 1: The ability of test compounds to inhibit the release of soluble CD23 was investigated by use of the following procedure.
RPMI 8866 Cell Membrane CD23 Cleavage Activity Assay:
Plasma membranes from RPMI 8866 cells, a human Epstein-Barr virus transformed B-cell line (Sarfati et al., Immunology 60 [1987] 539–547) expressing high levels of CD23 are purified using an aqueous extraction method. Cells resuspended in homogenization buffer (20 mM HEPES pH 7.4, 150 mM NaCl, 1.5 mM MgCl2, 1 mM DTT) are broken by N2 cavitation in a Parr bomb and the plasma membrane fraction mixed with other membranes is recovered by centrifugation at 10,000×g. […]
The fractionated membranes are incubated at 37° C. for times up to 4 hrs to produce fragments of CD23 which are separated from the membrane by filtration in 0.2 micron Durapore filter plates (Millipore) after quenching the assay with a non-selecitve MMP inhibitor, e.g. 5 uM Preparation 1 from WO 95/31457 ([4-(N-Hydroxyamino)-2-(R)-isobutyl-3-(S)-(2-thiophenethiomethyl)succinyl]-(S)-phenylalanine-N-methylamide sodium salt, prepared according to the procedure described in Example 11 of WO 90/05719). sCD23 released from the membrane is determined using the EIA kit from The Binding Site (Birmingham, UK) or a similar one utilising MHM6 anti-CD23 mAb [Rowe et al., Int. […]

T1 sequence (P08254 100-477, species assumed): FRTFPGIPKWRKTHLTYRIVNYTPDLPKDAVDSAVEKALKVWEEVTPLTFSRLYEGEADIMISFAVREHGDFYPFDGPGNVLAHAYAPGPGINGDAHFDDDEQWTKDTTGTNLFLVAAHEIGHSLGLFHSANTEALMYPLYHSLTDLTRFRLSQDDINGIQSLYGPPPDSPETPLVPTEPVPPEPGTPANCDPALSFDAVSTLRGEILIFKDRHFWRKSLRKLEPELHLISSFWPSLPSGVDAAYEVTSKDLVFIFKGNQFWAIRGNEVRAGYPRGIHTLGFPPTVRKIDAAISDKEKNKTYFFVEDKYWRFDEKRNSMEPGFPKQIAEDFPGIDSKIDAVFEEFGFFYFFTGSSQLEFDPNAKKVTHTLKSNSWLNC

As for `O=CN(O)[C@H](CS(=O)(=O)Cc1cnc2ccccc2c1)[C@H]1CCCO1` [Example 1], the half-maximal inhibitory concentration (IC50) – broadly, the concentration at which inhibition is half-maximal – against MMP-3 is above 100 µM; on MMP-13, 6 µM; in assay [1], 100 µM; in assay [2], 60 nM.
